{"source": "patent US20190153024A1", "about": "“NOVEL SALTS AND POLYMORPHS OF SCY-078” (priority 2015, published 2019)", "key": {"[1]": {"test": "Dynamic Vapor Sorption (DVS) water uptake", "assay_type": "physicochemical", "settings": "for solid form by XRPD after DVS: after DVS experiment", "experimental": "Dynamic Vapor Sorption (DVS)—The term “DVS” means the procedure described in below. The relative humidity at 25° C. was calibrated against deliquescence point of LiCl, Mg(NO3)2 and KCl.\nThe DVS of SCY-078 salts were tested according to the above method, using a 10-20 mg sample size. The DVS was measured using a Surface Measurement Systems (SMS) DVS Intrinsic."}, "[2]": {"test": "Kinetic solubility of trifluoroacetate Types A and B and HCl Type I (alternative procedure: SGF, FaSSIF and FeSSIF alternative media, acetate pH 5.5, phosphate pH 6.0 alternative media)", "experimental": "An alternative media (“FaSSIF alternative media”) was used to study the trifluoroacetate salts (Type A and B) and the HCl Type I salt. More specifically, the media was prepared by weighing 0.17 g of sodium phosphate monobasic (NaH2PO4, anhydrous), 0.021 g of sodium hydroxide, and 0.31 g of sodium chloride into a 50-mL volumetric flask and was dissolve with approximately 48 mL of purified water. The pH was adjusted to exactly 6.5 using 1 M HCl or 1 M NaOH and diluted to volume with purified water. 0.11 g of SIF powder was then added, stirred and sonicated until all the powder was completely dissolved. The solution was equilibrated for 2 hours at RT before use. The solution can be stored at RT for 48 hours or 4° C. for 7 days and should be equilibrated to RT before use\nAn alternative media (“FeSSIF alternative media”) was used to study the trifluoroacetate salts (Type A and B) and the HCl Type I salt. More specifically, the media was prepared by transferring 0.41 mL of glacial acid and weighing 0.20 g of sodium hydroxide, 0.59 g of sodium chloride into a 50-mL volumetric flask. This was dissolved with approximately 48 mL of purified water. The pH was adjusted to exactly 5.0 using 1 M HCl or 1 M NaOH and diluted to volume with purified water. 0.56 g of SIF powder was added, stirred and sonicated until all the powder is completely dissolved. The solution can be stored at RT for 48 hours or 4° C. for 7 days and should be equilibrated to RT before use.\nAcetate Buffer (pH 5.5) Preparation—The acetate buffer (pH 5.5) used for the trifluoroacetate salts (Type A and B) and the HCl Type I salt was prepared by placing 0.60 g sodium acetate (NaC2H3O2.3H2O) in a 100-mL volumetric flask, adding 3 mL of 2 M acetic acid solution, and then adding purified water to volume.\nAn alternative media (“phosphate (pH 6.0) alternative media”) was used to study the trifluoroacetate salts (Type A and B) and the HCl Type I salt. More specifically, the media was prepared by dissolving 2.72 g of 0.2 M monobasic potassium phosphate (KH2PO4) in purified water, and diluting with purified water t 100 mL. 0.8 g of 0.2 M sodium hydroxide in purified water was diluted with purified water to 100 mL. Then 50 mL of the 0.2 M monobasic potassium phosphate solution was placed in a 200-mL volumetric flask, 5.6 mL of 0.2 M sodium hydroxide solution was added, and then purified water was added to volume.\nThe trifluoroacetate salts (Type A and B) and the HCl Type I salt were tested using the following alternative procedure. First, 15 mg, 36 mg or 90 mg solid was weighted into a 4-mL plastic tube, and 3 mL of relevant media was added before leaving the suspension on a rolling incubator (25 r/min). For SCF, 90 mg of solid was used. For FaSSIF, acetate buffer (pH 5.5), and phosphate buffer (pH 6.0), 15 mg solid was used. For FeSSIF, 36 mg of solid was used. 1.0 mL aliquot of the suspension was sampled for centrifugation with the supernatant submitted for HPLC and pH measurement and solid for XRPD characterization at 1 hr, 4 hr and/or 24 hrs.\nThe solubility of trifluoroacetate Type A, Type B and HCl Type I was measured in SGF at ambient temperature. Approximately 90 mg of solid sample was weighted into a 4-mL centrifuge tube, and 3 mL of SGF buffer was added before leaving the suspension on a rolling incubator (25 r/min). 1.0 mL aliquot of the suspension was sampled for centrifugation (10000 rpm, 3 mins) the supernatant was analyzed by HPLC and pH measurement and solid by XRPD characterization at 1 hr, 4 hr and 24 hrs, respectively.\nThe solubility of trifluoroacetate Type A, Type B and hydrochloride Type I was measured in the FaSSIF alternative media at ambient temperature. Approximately 15 mg of solid sample was weighted into a 4-mL plastic tube, and 3 mL of the media was added before leaving the suspension on a rolling incubator (25 r/min)."}, "[3]": {"test": "Physical and chemical stability of trifluoroacetate Types A and B and HCl Type I for 1, 2, 4 and 8 weeks", "assay_type": "physicochemical", "settings": "25° C./60% RH, 40° C./75% RH and 60° C.; 8 weeks; listed as Trifluoroacetate Type B", "experimental": "High Power Liquid Chromatography (HPLC) Method—An Agilent 1260 HPLC with DAD detector was utilized to test solubility or to test purity and stability. […] System suitability was tested by injecting standard solutions five times in each sample sequence, and the relative standard deviation of the peak areas was less than 2%.\nPhysical and chemical stability evaluation of trifluoroacetate Type A, trifluoroacetate Type B, and HCl Type I was performed at 25° C./60% RH, 40° C./75% RH and 60° C. for 1, 2, 4 and 8 weeks. In the experiments, approximately 20 mg of solid was placed into a 1.5-mL glass vial. The vials were stored under 25° C./60% RH (uncapped), 40° C./75% RH (uncapped) and 60° C. (capped) conditions for 8 weeks. XRPD analysis was then employed to check the crystalline form of the solid, and HPLC was utilized to determine the purity profile at 1, 2, 4 and 8 weeks. […] The solid form change of trifluoroacetate Type A at 2 and 4 weeks was postulated to the air-exposure when the sample was taken out for XRPD characterization."}, "[4]": {"test": "Approximate solubility in solvents at room temperature", "assay_type": "physicochemical", "settings": "25 °C, thermodynamic from solid", "experimental": "Approximate solubility of SCY-078 salts—The term “approximate solubility” with respect to SCY-078 salts means the procedure described in this paragraph. To conduct each experiment, a sample of a SCY-078 salt (˜2 mg) was added into a 3-mL glass vial. Then a solvent was added step-wise (100 μL per step) into the vials until the solids were dissolved or a total volume of 2 mL was reached.\nFirst, MeOH desolvate (˜2 mg) was added to a 3-mL glass vial. Then the corresponding solvent was added step wise (100 μL) until the solution was visually clear or a total volume of 2 mL was reached."}}, "data": [{"smiles": "CC(C)[C@@H](C)[C@@]1(C)CC[C@]2(C)[C@H]3CC[C@@H]4[C@@]5(COC[C@]4(C)[C@@H](OC[C@](C)(N)C(C)(C)C)[C@H](n4ncnc4-c4ccncc4)C5)C3=CC[C@@]2(C)[C@@H]1C(=O)O.O=C(O)C(F)(F)F", "note": "[SCY-078 Trifluoroacetate Type B]", "values": [{"measurement": "water uptake (DVS)", "setting": "[1]; 25° C./80% RH", "value": 3.4, "unit": "wt %"}, {"measurement": "solid form by XRPD after DVS", "setting": "[1]", "value": "converted to Type A"}, {"measurement": "form change of residual solid in FaSSIF alternative media", "setting": "[2]; FaSSIF alternative media, ambient temperature, listed as Trifluoroacetate Type B", "value": "converted to Type A"}, {"measurement": "form change of residual solid in FeSSIF alternative media", "setting": "[2]; FeSSIF alternative media, ambient temperature, listed as trifluoroacetate Type B", "value": "no form change was observed"}, {"measurement": "form change of residual solid in SGF", "setting": "[2]; SGF, ambient temperature, listed as Trifluoroacetate Type B", "value": "converted to Type A"}, {"measurement": "form change of residual solid in acetate buffer", "setting": "[2]; acetate buffer pH 5.5, ambient temperature, listed as trifluoroacetate Type B", "value": "converted to Type A"}, {"measurement": "form change of residual solid in phosphate (pH 6.0) alternative media", "setting": "[2]; phosphate (pH 6.0) alternative media, ambient temperature, listed as trifluoroacetate Type B", "value": "converted to Type A at 24 hrs"}, {"measurement": "physical and chemical stability", "setting": "[3]", "value": "chemically stable, however, physically unstable"}]}, {"smiles": "CC(C)[C@@H](C)[C@@]1(C)CC[C@]2(C)[C@H]3CC[C@@H]4[C@@]5(COC[C@]4(C)[C@@H](OC[C@](C)(N)C(C)(C)C)[C@H](n4ncnc4-c4ccncc4)C5)C3=CC[C@@]2(C)[C@@H]1C(=O)O", "note": "[SCY-078, (1S,4aR,6aS,7R,8R,10aR,10bR,12aR,14R,15R)-15-[[(2R)-2-amino-2,3,3-trimethylbutyl]oxy]-8-[(1R)-1,2-dimethylpropyl]-14-[5-(4-pyridinyl)-1H-1,2,4-triazol-1-yl]-1,6,6a,7,8,9,10,10a,10b,11,12,12a-dodecahydro-1,6a,8,10a-tetramethyl-4H-4a-propano-2H -phenanthro[1,2-c]pyran-7-carboxylic acid]", "values": [{"measurement": "solubility", "setting": "[4]; organic solvent or mixture, 1,4-Dioxane, RT", "value": "> 37", "unit": "mg/mL"}, {"measurement": "solubility", "setting": "[4]; organic solvent or mixture, 2-MeTHF, RT", "value": "> 25", "unit": "mg/mL"}, {"measurement": "solubility", "setting": "[4]; organic solvent or mixture, Acetic Acid, RT", "value": "> 25", "unit": "mg/mL"}, {"measurement": "solubility", "setting": "[4]; organic solvent or mixture, Acetone, RT", "value": "8.3 to 12.5", "unit": "mg/mL"}, {"measurement": "solubility", "setting": "[4]; organic solvent or mixture, CHCl3, RT", "value": "> 33", "unit": "mg/mL"}, {"measurement": "solubility", "setting": "[4]; organic solvent or mixture, DMA, RT", "value": "> 40", "unit": "mg/mL"}, {"measurement": "solubility", "setting": "[4]; organic solvent or mixture, DMSO, RT", "value": "> 32", "unit": "mg/mL"}, {"measurement": "solubility", "setting": "[4]; organic solvent or mixture, EtOAc, RT", "value": "> 23", "unit": "mg/mL"}, {"measurement": "solubility", "setting": "[4]; organic solvent or mixture, EtOH, RT", "value": "2.6 to 3", "unit": "mg/mL"}, {"measurement": "solubility", "setting": "[4]; organic solvent or mixture, Heptane, RT", "value": "< 2.2", "unit": "mg/mL"}, {"measurement": "solubility", "setting": "[4]; organic solvent or mixture, IPA, RT", "value": "7 to 11", "unit": "mg/mL"}, {"measurement": "solubility", "setting": "[4]; organic solvent or mixture, MIBK, RT", "value": "> 29", "unit": "mg/mL"}, {"measurement": "solubility", "setting": "[4]; organic solvent or mixture, MTBE, RT", "value": "> 23", "unit": "mg/mL"}, {"measurement": "solubility", "setting": "[4]; organic solvent or mixture, MeOH, RT", "value": "5.4 to 6.3", "unit": "mg/mL"}, {"measurement": "solubility", "setting": "[4]; organic solvent or mixture, NMP, RT", "value": "> 45", "unit": "mg/mL"}, {"measurement": "solubility", "setting": "[4]; organic solvent or mixture, THF, RT", "value": "> 23", "unit": "mg/mL"}, {"measurement": "solubility", "setting": "[4]; organic solvent or mixture, Toluene, RT", "value": "6.8 to 8.5", "unit": "mg/mL"}, {"measurement": "solubility", "setting": "[4]; organic solvent or mixture, iPrOAc, RT", "value": "10.5 to 21", "unit": "mg/mL"}, {"measurement": "solubility", "setting": "[4]; acetonitrile (ACN), organic solvent or mixture, ACN, RT", "value": "2.6 to 2.9", "unit": "mg/mL"}, {"measurement": "solubility", "setting": "[4]; water (H2O), water, H2O, RT", "value": "< 1.9", "unit": "mg/mL"}]}, {"smiles": "CC(C)[C@@H](C)[C@@]1(C)CC[C@]2(C)[C@H]3CC[C@@H]4[C@@]5(COC[C@]4(C)[C@@H](OC[C@](C)(N)C(C)(C)C)[C@H](n4ncnc4-c4ccncc4)C5)C3=CC[C@@]2(C)[C@@H]1C(=O)O", "note": "[SCY-078 amorphous freebase]", "values": [{"measurement": "water uptake (DVS)", "setting": "[1]; 25° C., 80% RH", "value": "~4.8", "unit": "%"}, {"measurement": "solid form by XRPD after DVS", "setting": "[1]", "value": "no form change"}]}]}
